According to PMC4363860 (Scientific Reports, 2015):
Like-named read-outs stand apart in the source and are kept apart here.

Key:
E. coli = test: MIC and reciprocal sensitization (Fig. 2a,b; Suppl. Figs S2, S3); type: cell-based, Escherichia coli
Klebsiella = test: MIC (Suppl. Figs S2, S3); type: cell-based
S. stanley 7308 = test: Chemo-sensitization (Suppl. Table S1); type: cell-based, Salmonella; details: for MIC: Salmonella enterica, 7308, read-out: MIC of rifampin in presence of C10KKc12K, S. stanley 7308
[1] = Pharmacokinetic study, plasma concentrations by LC-MS; type: in vivo; details: mice, oral 20 mg/Kg, N = 2 mice/time point, mean ± s.d.
Experimental: Drugs blood concentrations were determined by LC-MS using calibrated curves essentially as described[5][9]. […] At specified time intervals mice were euthanized (CO2 asphyxiation) and blood samples collected from vena cava (N = 2 mice/time point). For analysis, samples were centrifuged (2 min, 6000 × g), 200 μl plasma were mixed with 0.5 ml extraction buffer (50% acetonitrile (ACN): 50% methanol) incubated (30 min on plate shaker at 200 rpm, RT), centrifuged (2 min, 14000 × g) and 300 μl supernatant diluted twofold in DDW and analyzed by LC-MS (5 μl injected to Waters Xevo G2 Tof/ACQUITY UPLC H-Class system). Flow rate, 0.5 ml/min. Run time, 5 min. Mobile phase, ACN/DDW combination containing 0.1% formic acid using an ACQUITY UPLC BEH column (C18 1.7 μm) and eluted with a 0–90% ACN gradient. Quantification was by MS detection in positive ionization mode using an identical procedure that was performed in mouse whole blood in order to establish standard calibration curves.

K. pneumoniae = test: Efficacy, peritonitis-sepsis model in neutropenic mice; type: in vivo, Klebsiella pneumoniae; details: IP K. pneumoniae 3 × 10^7 CFU, rifampin oral 0.45 mg/mouse or OAK SC 0.3 mg/mouse, 2 experiments, 10 mice/group, vehicle 20 ± 10%
Experimental: Animal studies were performed using male ICR mice (weight range, 23 ± 2 g) obtained from Harlan Laboratories (Rehovot, Israel). Procedures, care and handling of animals were reviewed and approved by Technion Animal Care and Use Committee.
Mice were rendered neutropenic by intraperitoneal (IP) injection of cyclophosphamide (150 and 100 mg/Kg on days 0 and 3, respectively). The procedure was confirmed to result in severe neutropenia by day 4, at which time infection was induced. The peritonitis-sepsis model was used whereby infection was obtained after IP injection of a logarithmic-phase culture of K. pneumoniae (3 × 10^7 CFU/mice in 0.3 ml PBS). […] Mice survival was monitored for up to 7 days post-treatment. Survival data were obtained from 2 independent experiments (n = 10 mice/group/experiment). Statistical analysis was performed using a paired t test were α equals 0.05.

E. coli 35218 = test: Chemo-sensitization (Suppl. Table S1); details: for MIC: Escherichia coli, 35218, read-out: MIC of rifampin in presence of C10KKc12K, E. coli 35218
E. coli 14182 = test: Chemo-sensitization (Suppl. Table S1)
E. coli 16327 = test: Chemo-sensitization (Suppl. Table S1)
E. coli 16329 = test: Chemo-sensitization (Suppl. Table S1)
E. coli 14384 = test: Chemo-sensitization (Suppl. Table S1); details: for MIC: Escherichia coli, 14384, read-out: MIC of rifampin in presence of C10KKc12K, E. coli 14384
S. Typhimurium 14028 = test: Chemo-sensitization (Suppl. Table S1); details: for MIC: Salmonella enterica, TYPHIMURIUM
K. pneumoniae 1287 = test: Chemo-sensitization (Suppl. Table S1)

Which results are given for `CO[C@H]1/C=C/O[C@@]2(C)Oc3c(C)c(O)c4c(O)c(c(/C=N/N5CCN(C)CC5)c(O)c4c3C2=O)NC(=O)/C(C)=C\C=C\[C@H](C)[C@H](O)[C@@H](C)[C@@H](O)[C@@H](C)[C@H](OC(C)=O)[C@@H]1C` [rifampin]?
standalone antibiotic MIC (E. coli): 16 µg/mL; standalone antibiotic MIC (Klebsiella): 32 µg/mL; SF, sensitization factor, rifampin with C10KKc12K (S. stanley 7308; S. stanley 7308): 2000; MIC (S. stanley 7308; OAK 0 µg/ml): 16 µg/mL; MIC (S. stanley 7308; OAK 1.25 µg/ml): 16 µg/mL; MIC (S. stanley 7308; OAK 2.5 µg/ml): 0.125 µg/mL; MIC (S. stanley 7308; OAK 5 µg/ml): 0.008 µg/mL; plasma concentration reached after oral administration [1]: 13260 ± 2250 ng/mL; survivors at day 7, single dose monotherapy (K. pneumoniae): 10%; SF, sensitization factor, rifampin with C10KKc12K (E. coli 35218; E. coli 35218): 258; MIC (E. coli 35218; OAK 0 µg/ml): 8 µg/mL; MIC (E. coli 35218; OAK 1.25 µg/ml): 0.5 µg/mL; MIC (E. coli 35218; OAK 5 µg/ml): 0.031 µg/mL; SF, sensitization factor, rifampin with C10KKc12K (E. coli 14182; E. coli 14182): 516; SF, sensitization factor, rifampin with C12(ω7)KKc12K (E. coli 14182; E. coli 14182): > 800; MIC (E. coli 14182; Escherichia coli, 14182, read-out: MIC of rifampin in presence of C10KKc12K, E. coli 14182, OAK 0 µg/ml): 16 µg/mL; MIC (E. coli 14182; Escherichia coli, 14182, read-out: MIC of rifampin in presence of C10KKc12K, E. coli 14182, OAK 1.25 µg/ml): 4 µg/mL; MIC (E. coli 14182; Escherichia coli, 14182, read-out: MIC of rifampin in presence of C10KKc12K, E. coli 14182, OAK 2.5 µg/ml): 0.125 µg/mL; MIC (E. coli 14182; Escherichia coli, 14182, read-out: MIC of rifampin in presence of C10KKc12K, E. coli 14182, OAK 5 µg/ml): 0.031 µg/mL; MIC (E. coli 14182; Escherichia coli, 14182, read-out: MIC of rifampin in presence of C12(ω7)KKc12K, E. coli 14182, OAK 0 µg/ml): 8 µg/mL; MIC (E. coli 14182; Escherichia coli, 14182, read-out: MIC of rifampin in presence of C12(ω7)KKc12K, E. coli 14182, OAK 1.25 µg/ml): 8 µg/mL; MIC (E. coli 14182; Escherichia coli, 14182, read-out: MIC of rifampin in presence of C12(ω7)KKc12K, E. coli 14182, OAK 2.5 µg/ml): 0.031 µg/mL; MIC (E. coli 14182; Escherichia coli, 14182, read-out: MIC of rifampin in presence of C12(ω7)KKc12K, E. coli 14182, OAK 5 µg/ml): < 0.01 µg/mL; SF, sensitization factor, rifampin with C10KKc12K (E. coli 16327; E. coli 16327): 2000; SF, sensitization factor, rifampin with C12(ω7)KKc12K (E. coli 16327; E. coli 16327): > 3200; MIC (E. coli 16327; Escherichia coli, 16327, read-out: MIC of rifampin in presence of C10KKc12K, E. coli 16327, OAK 0 µg/ml): 16 µg/mL; MIC (E. coli 16327; Escherichia coli, 16327, read-out: MIC of rifampin in presence of C10KKc12K, E. coli 16327, OAK 1.25 µg/ml): 0.5 µg/mL; MIC (E. coli 16327; Escherichia coli, 16327, read-out: MIC of rifampin in presence of C10KKc12K, E. coli 16327, OAK 2.5 µg/ml): 0.031 µg/mL; MIC (E. coli 16327; Escherichia coli, 16327, read-out: MIC of rifampin in presence of C10KKc12K, E. coli 16327, OAK 5 µg/ml): 0.008 µg/mL; MIC (E. coli 16327; Escherichia coli, 16327, read-out: MIC of rifampin in presence of C12(ω7)KKc12K, E. coli 16327, OAK 0 µg/ml): 16 to 32 µg/mL; MIC (E. coli 16327; Escherichia coli, 16327, read-out: MIC of rifampin in presence of C12(ω7)KKc12K, E. coli 16327, OAK 1.25 µg/ml): 8 µg/mL; MIC (E. coli 16327; Escherichia coli, 16327, read-out: MIC of rifampin in presence of C12(ω7)KKc12K, E. coli 16327, OAK 2.5 µg/ml): < 0.01 µg/mL; MIC (E. coli 16327; Escherichia coli, 16327, read-out: MIC of rifampin in presence of C12(ω7)KKc12K, E. coli 16327, OAK 5 µg/ml): < 0.01 µg/mL; SF, sensitization factor, rifampin with C10KKc12K (E. coli 16329; E. coli 16329): 2000; SF, sensitization factor, rifampin with C12(ω7)KKc12K (E. coli 16329; E. coli 16329): 2000; MIC (E. coli 16329; Escherichia coli, 16329, read-out: MIC of rifampin in presence of C10KKc12K, E. coli 16329, OAK 0 µg/ml): 16 µg/mL; MIC (E. coli 16329; Escherichia coli, 16329, read-out: MIC of rifampin in presence of C10KKc12K, E. coli 16329, OAK 1.25 µg/ml): 0.5 µg/mL; MIC (E. coli 16329; Escherichia coli, 16329, read-out: MIC of rifampin in presence of C10KKc12K, E. coli 16329, OAK 5 µg/ml): 0.008 µg/mL; MIC (E. coli 16329; Escherichia coli, 16329, read-out: MIC of rifampin in presence of C12(ω7)KKc12K, E. coli 16329, OAK 0 µg/ml): 16 µg/mL; MIC (E. coli 16329; Escherichia coli, 16329, read-out: MIC of rifampin in presence of C12(ω7)KKc12K, E. coli 16329, OAK 1.25 µg/ml): 8 µg/mL; MIC (E. coli 16329; Escherichia coli, 16329, read-out: MIC of rifampin in presence of C12(ω7)KKc12K, E. coli 16329, OAK 2.5 µg/ml): 0.031 µg/mL; MIC (E. coli 16329; Escherichia coli, 16329, read-out: MIC of rifampin in presence of C12(ω7)KKc12K, E. coli 16329, OAK 5 µg/ml): 0.008 µg/mL; SF, sensitization factor, rifampin with C10KKc12K (E. coli 14384; E. coli 14384): 258; MIC (E. coli 14384; OAK 0 µg/ml): 8 µg/mL; MIC (E. coli 14384; OAK 1.25 µg/ml): 0.5 µg/mL; MIC (E. coli 14384; OAK 2.5 µg/ml): 0.125 µg/mL; MIC (E. coli 14384; OAK 5 µg/ml): 0.031 µg/mL; SF, sensitization factor, rifampin with C10KKc12K (S. Typhimurium 14028; S. Typhimurium 14028): 2000; SF, sensitization factor, rifampin with C12(ω7)KKc12K (S. Typhimurium 14028; S. Typhimurium 14028): 2667; MIC (S. Typhimurium 14028; read-out: MIC of rifampin in presence of C10KKc12K, S. Typhimurium 14028, OAK 0 µg/ml): 16 µg/mL; MIC (S. Typhimurium 14028; read-out: MIC of rifampin in presence of C10KKc12K, S. Typhimurium 14028, OAK 1.25 µg/ml): 8 µg/mL; MIC (S. Typhimurium 14028; read-out: MIC of rifampin in presence of C10KKc12K, S. Typhimurium 14028, OAK 5 µg/ml): 0.008 µg/mL; MIC (S. Typhimurium 14028; read-out: MIC of rifampin in presence of C12(ω7)KKc12K, S. Typhimurium 14028, OAK 0 µg/ml): 16 µg/mL; MIC (S. Typhimurium 14028; read-out: MIC of rifampin in presence of C12(ω7)KKc12K, S. Typhimurium 14028, OAK 1.25 µg/ml): 8 µg/mL; MIC (S. Typhimurium 14028; read-out: MIC of rifampin in presence of C12(ω7)KKc12K, S. Typhimurium 14028, OAK 2.5 µg/ml): 0.016 µg/mL; MIC (S. Typhimurium 14028; read-out: MIC of rifampin in presence of C12(ω7)KKc12K, S. Typhimurium 14028, OAK 5 µg/ml): 0.006 µg/mL; SF, sensitization factor, rifampin with C12(ω7)KKc12K (K. pneumoniae 1287; K. pneumoniae 1287): 5333; MIC (K. pneumoniae 1287; Klebsiella pneumoniae, 1287, read-out: MIC of rifampin in presence of C10KKc12K, K. pneumoniae 1287, OAK 1.25 µg/ml): 8 µg/mL; MIC (K. pneumoniae 1287; Klebsiella pneumoniae, 1287, read-out: MIC of rifampin in presence of C10KKc12K, K. pneumoniae 1287, OAK 2.5 µg/ml): 0.031 µg/mL; MIC (K. pneumoniae 1287; Klebsiella pneumoniae, 1287, read-out: MIC of rifampin in presence of C12(ω7)KKc12K, K. pneumoniae 1287, OAK 1.25 µg/ml): 4 µg/mL; MIC (K. pneumoniae 1287; Klebsiella pneumoniae, 1287, read-out: MIC of rifampin in presence of C12(ω7)KKc12K, K. pneumoniae 1287, OAK 2.5 µg/ml): 0.1 µg/mL; MIC (K. pneumoniae 1287; Klebsiella pneumoniae, 1287, read-out: MIC of rifampin in presence of C12(ω7)KKc12K, K. pneumoniae 1287, OAK 5 µg/ml): 0.006 µg/mL
